Values joined by “and” are separate entries in the source; they are usually repeats but may differ in a detail not shown here. Equal values may be shown once.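 Where inhibition never reached the appropriate level, the endpoint shown equals the highest concentration tested. Otherwise, values were interpolated linearly from a five-concentration, 48-hour dose response in 96-well plates. GI50 marks 50% less growth. TGI marks complete inhibition of growth.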

Experimental findings from PubChem BioAssay (NCI) are described below.

Among the test systems are 786-0 renal; HOP-62 NSCLC; SK-MEL-2 melanoma; RXF 393 renal; M14 melanoma; UO-31 renal; OVCAR-3 ovarian; SK-MEL-5 melanoma; SF-539 CNS; SNB-75 CNS.
What all share (assay): NCI anticancer screen, dose series, 48 h

With `COc1cccc2c1C(=O)c1c(O)c3c(c(O)c1C2=O)C[C@@](O)(C(=O)CO)C[C@@H]3OC1CC(N)CC(C)O1` (some centres undefined), the GI50 was 0.02 µM with 786-0 renal; 0.0175 µM in the assay on HOP-62 NSCLC; 0.125 µM and 0.0769 µM in the assay with SK-MEL-2 melanoma; 0.122 µM and 0.0806 µM with RXF 393 renal; 0.036 µM with M14 melanoma; 0.192 µM and 0.362 µM in the assay on UO-31 renal. Further, the GI50 is 0.102 µM in the assay on OVCAR-3 ovarian; 0.00743 µM and 0.025 µM in the assay on SK-MEL-5 melanoma; 0.0189 µM and 0.0471 µM in the assay on SF-539 CNS; 0.00885 µM and 0.047 µM in the assay with SNB-75 CNS. Moreover, the TGI is 0.514 µM and 0.568 µM in the assay on 786-0 renal; 0.326 µM and 0.0977 µM in the assay with HOP-62 NSCLC; 0.315 µM and 0.22 µM in the assay with SK-MEL-2 melanoma; 0.298 µM and 0.369 µM in the assay on RXF 393 renal; 0.278 µM and 0.218 µM in the assay on M14 melanoma; 0.771 µM and 1.61 µM with UO-31 renal. Moreover, the TGI in the assay on OVCAR-3 ovarian is 1.11 µM and 1.22 µM; with SK-MEL-5 melanoma, 0.145 µM and 0.203 µM; in the assay with SF-539 CNS, 0.194 µM and 0.211 µM; in the assay on SNB-75 CNS, 0.195 µM and 0.161 µM.

Turning to `CCOC(=O)C(C#N)C1=CC(=O)C(=O)c2ccc(OC)cc21` (centres undefined), the TGI was found to be 64.9 µM with 786-0 renal; 51.7 µM with HOP-62 NSCLC; 28.1 µM with SK-MEL-2 melanoma; 47.5 µM with RXF 393 renal; 29.8 µM with M14 melanoma; 32 µM in the assay with UO-31 renal. Also, the TGI in the assay with OVCAR-3 ovarian turned out to be 47.5 µM; with SK-MEL-5 melanoma, 28.8 µM; with SF-539 CNS it was 33.5 µM; in the assay with SNB-75 CNS, 58.5 µM.

Take `CNCc1ccccc1-c1csc([C@@H](C)Nc2nc(C)nc3cc(OC)c(OC)cc23)c1`: the GI50 in the assay on 786-0 renal is 1.52 µM; with HOP-62 NSCLC, 1.43 µM; with SK-MEL-2 melanoma, 1.87 µM; in the assay on RXF 393 renal it was 1.31 µM; in the assay on M14 melanoma, 1.79 µM; in the assay on UO-31 renal it was 1.23 µM. The GI50 is 2.42 µM in the assay on OVCAR-3 ovarian, 1.72 µM in the assay with SK-MEL-5 melanoma, 1.5 µM in the assay on SF-539 CNS and 1.33 µM with SNB-75 CNS. Besides, the TGI in the assay with 786-0 renal stood at 2.87 µM; in the assay with HOP-62 NSCLC, 12.3 µM; with SK-MEL-2 melanoma, 3.69 µM; with RXF 393 renal it was 2.84 µM; with M14 melanoma it was 3.35 µM; in the assay with UO-31 renal, 2.48 µM. The TGI in the assay on OVCAR-3 ovarian turned out to be 8.04 µM; with SK-MEL-5 melanoma, 3.09 µM; in the assay with SF-539 CNS, 2.94 µM; in the assay on SNB-75 CNS, 2.65 µM.

For `S=C(Nc1ccc(Cl)cc1)Nc1ccc(-c2nc3ccccc3s2)cc1`, the GI50 in the assay with 786-0 renal was 16.3 µM; with HOP-62 NSCLC it was 20.1 µM; in the assay with SK-MEL-2 melanoma it was 21 µM; in the assay with RXF 393 renal it was 16.6 µM; in the assay with M14 melanoma it was 14.3 µM; with UO-31 renal it was 11.8 µM. Further, the GI50 in the assay with OVCAR-3 ovarian is 9.93 µM; in the assay with SK-MEL-5 melanoma it was 11 µM; in the assay with SF-539 CNS it was 17.5 µM; in the assay on SNB-75 CNS, 13.8 µM. In addition, the TGI with 786-0 renal is 30.2 µM; in the assay on HOP-62 NSCLC it was 41 µM; in the assay on SK-MEL-2 melanoma, 40.2 µM; in the assay with RXF 393 renal, 37.1 µM; with M14 melanoma it was 28 µM; in the assay with UO-31 renal, 25.2 µM. The TGI was 34.1 µM in the assay on OVCAR-3 ovarian, 22.9 µM in the assay with SK-MEL-5 melanoma, 34 µM in the assay with SF-539 CNS and 35.5 µM in the assay with SNB-75 CNS.

Turning to `CN1CCN(C2CCN(C(=O)Nc3cc(Oc4ccc(NC(=O)C5(C(=O)Nc6ccc(F)cc6)CC5)c(F)c4)ccn3)CC2)CC1`, the GI50 with 786-0 renal is 1.67 µM; with SK-MEL-2 melanoma, 0.744 µM; in the assay with RXF 393 renal it was 0.918 µM; with M14 melanoma, 0.639 µM; in the assay on UO-31 renal, 1.46 µM; with SK-MEL-5 melanoma, 2.43 µM. The results for the GI50 in the assay with SF-539 CNS and in the assay with SNB-75 CNS were 0.994 µM and 0.365 µM, respectively. The TGI in the assay on 786-0 renal was > 10 µM; in the assay on HOP-62 NSCLC, > 3.92 µM; in the assay with SK-MEL-2 melanoma, 2.18 µM; in the assay with RXF 393 renal it was > 2.4 µM; in the assay with M14 melanoma, 1.8 µM; with UO-31 renal it was > 10 µM. In addition, the TGI in the assay with OVCAR-3 ovarian was > 3.02 µM; with SK-MEL-5 melanoma it was 6.36 µM; with SF-539 CNS it was > 2.2 µM; in the assay on SNB-75 CNS, > 1.97 µM.

With `COC(=O)C[C@](O)(CCCC(C)(C)O)C(=O)O[C@@H]1C(OC)=C[C@]23CCCN2CCc2cc4c(cc2[C@H]13)OCO4`, the GI50 is 0.033 µM with 786-0 renal; 0.0363 µM with HOP-62 NSCLC; 0.0455 µM in the assay on SK-MEL-2 melanoma; 0.0217 µM with RXF 393 renal; 0.0228 µM in the assay with M14 melanoma; 0.181 µM in the assay on UO-31 renal. In addition, the GI50 in the assay with OVCAR-3 ovarian was 0.251 µM and 0.0286 µM; in the assay on SK-MEL-5 melanoma it was 0.0149 µM; in the assay with SF-539 CNS, 0.0195 µM; with SNB-75 CNS, 0.0235 µM. Further, the TGI in the assay on HOP-62 NSCLC is 0.366 µM and 0.265 µM; with SK-MEL-2 melanoma, 0.994 µM and 0.198 µM; in the assay with RXF 393 renal, 0.503 µM and 0.107 µM; with UO-31 renal it was 2.01 µM and 3.13 µM; in the assay on SF-539 CNS it was 0.264 µM and 0.0539 µM; in the assay with SNB-75 CNS it was 0.657 µM and 0.0931 µM.

On to `O=C(Nc1ccn(CCO)c(=O)n1)c1ccccc1`, for which the TGI with 786-0 renal, in the assay on HOP-62 NSCLC, in the assay on SK-MEL-2 melanoma, in the assay with RXF 393 renal, with M14 melanoma and in the assay on UO-31 renal was > 100 µM each time. The TGI in the assay with OVCAR-3 ovarian, with SK-MEL-5 melanoma, with SF-539 CNS and with SNB-75 CNS was > 100 µM throughout.

In the case of `Cc1ccc(S(=O)(=O)N(C=O)N=C2CCN(Cc3ccccc3)CC2)cc1`, the TGI in the assay on 786-0 renal, in the assay with HOP-62 NSCLC, with SK-MEL-2 melanoma, in the assay with RXF 393 renal, in the assay with M14 melanoma and in the assay with UO-31 renal was > 100 µM throughout. Moreover, the TGI in the assay on OVCAR-3 ovarian, in the assay on SK-MEL-5 melanoma, in the assay with SF-539 CNS and in the assay on SNB-75 CNS was > 100 µM in each case.
